Measurements taken from patent US10526316B2, “Quinoxaline and pyridopyrazine derivatives as PI3Kβ inhibitors” (Janssen Pharmaceutica NV, priority 2015, dated 2020).
Read-outs that look alike come from different tables or passages of the source.

How the values were obtained:
PI3Kδ = target: T1, PI3Kδ (Homo sapiens, UniProt O00329); assay: Enzyme binding assay (KINOMEscan, DiscoveRx); settings: PIK3Cδ_h
T1 construct: purchased DiscoveRx Corporation, San Diego (contract service, KINOMEscan)
T1 sequence (O00329 1-1044): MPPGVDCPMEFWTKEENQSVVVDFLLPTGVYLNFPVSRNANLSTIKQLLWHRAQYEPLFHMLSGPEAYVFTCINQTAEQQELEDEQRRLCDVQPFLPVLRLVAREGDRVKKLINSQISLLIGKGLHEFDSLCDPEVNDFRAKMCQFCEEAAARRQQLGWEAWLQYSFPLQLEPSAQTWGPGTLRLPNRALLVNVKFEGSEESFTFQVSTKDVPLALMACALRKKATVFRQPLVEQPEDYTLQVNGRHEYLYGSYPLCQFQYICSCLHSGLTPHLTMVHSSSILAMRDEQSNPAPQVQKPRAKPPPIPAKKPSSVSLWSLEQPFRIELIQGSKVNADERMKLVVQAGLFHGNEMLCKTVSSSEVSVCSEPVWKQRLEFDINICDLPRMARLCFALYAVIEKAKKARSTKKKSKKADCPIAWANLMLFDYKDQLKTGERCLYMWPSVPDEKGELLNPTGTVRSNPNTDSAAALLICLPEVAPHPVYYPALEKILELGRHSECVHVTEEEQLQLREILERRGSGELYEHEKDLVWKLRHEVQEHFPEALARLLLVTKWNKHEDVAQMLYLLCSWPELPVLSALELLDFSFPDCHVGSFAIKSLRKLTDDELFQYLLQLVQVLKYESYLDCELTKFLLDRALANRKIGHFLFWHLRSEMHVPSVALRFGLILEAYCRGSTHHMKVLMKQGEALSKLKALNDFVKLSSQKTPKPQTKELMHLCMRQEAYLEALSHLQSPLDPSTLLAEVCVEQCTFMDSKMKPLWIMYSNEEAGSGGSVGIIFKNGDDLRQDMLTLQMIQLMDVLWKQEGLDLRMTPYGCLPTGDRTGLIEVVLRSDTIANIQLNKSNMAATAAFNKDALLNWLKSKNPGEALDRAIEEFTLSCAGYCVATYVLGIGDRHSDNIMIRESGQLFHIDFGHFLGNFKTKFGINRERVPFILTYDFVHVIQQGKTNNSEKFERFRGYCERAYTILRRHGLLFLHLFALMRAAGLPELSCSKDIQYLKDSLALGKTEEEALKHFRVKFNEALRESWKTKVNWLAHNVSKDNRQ
Summary of the method: (§1)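 Binding affinities were measured on the KINOMEscan platform.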

PI3Kβ = target: T2, PI3Kβ (Homo sapiens, UniProt P42338); assay: Enzyme binding assay (KINOMEscan, DiscoveRx); settings: PIK3Cβ_h, read-out: Kd PIK3Cβ_h
T2 construct: purchased DiscoveRx Corporation, San Diego (contract service, KINOMEscan)
T2 sequence (P42338 whole entry): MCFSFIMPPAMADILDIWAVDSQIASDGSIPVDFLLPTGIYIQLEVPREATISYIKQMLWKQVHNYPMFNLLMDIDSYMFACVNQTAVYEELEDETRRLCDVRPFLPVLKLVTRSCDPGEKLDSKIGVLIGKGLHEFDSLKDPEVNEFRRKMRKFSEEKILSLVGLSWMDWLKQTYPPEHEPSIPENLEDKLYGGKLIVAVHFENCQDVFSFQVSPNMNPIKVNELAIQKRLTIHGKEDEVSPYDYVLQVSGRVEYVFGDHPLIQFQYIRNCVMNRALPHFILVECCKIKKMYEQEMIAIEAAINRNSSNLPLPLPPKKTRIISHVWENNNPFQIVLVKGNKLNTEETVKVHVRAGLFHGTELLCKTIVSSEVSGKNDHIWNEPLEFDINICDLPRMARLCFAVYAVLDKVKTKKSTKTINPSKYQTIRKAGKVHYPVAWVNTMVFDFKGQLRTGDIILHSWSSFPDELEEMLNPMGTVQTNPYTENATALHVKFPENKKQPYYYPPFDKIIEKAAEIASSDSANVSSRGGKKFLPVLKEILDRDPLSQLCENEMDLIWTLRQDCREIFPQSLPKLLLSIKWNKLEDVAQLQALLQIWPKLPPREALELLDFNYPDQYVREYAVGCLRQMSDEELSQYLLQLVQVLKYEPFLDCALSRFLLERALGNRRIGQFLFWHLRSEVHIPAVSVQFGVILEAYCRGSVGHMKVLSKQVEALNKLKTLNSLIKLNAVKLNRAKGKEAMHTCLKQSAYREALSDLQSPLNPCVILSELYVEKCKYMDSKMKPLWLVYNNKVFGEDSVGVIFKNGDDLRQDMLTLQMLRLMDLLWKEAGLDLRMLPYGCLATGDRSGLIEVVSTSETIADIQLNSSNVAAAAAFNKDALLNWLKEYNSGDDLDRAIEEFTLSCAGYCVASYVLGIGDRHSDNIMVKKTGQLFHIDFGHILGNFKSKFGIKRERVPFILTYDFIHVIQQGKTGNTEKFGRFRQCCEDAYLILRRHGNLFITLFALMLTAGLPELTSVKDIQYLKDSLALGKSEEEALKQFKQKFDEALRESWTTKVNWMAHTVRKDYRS
Summary of the method: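 Kinase binding affinities were measured with KINOMEscan technology. Results are given as Kd, the inhibitor binding constant, in nM.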

kinase enzymes [1] = target: T3, kinase enzymes (Homo sapiens, UniProt P42345); assay: Enzyme binding assay (KINOMEscan, DiscoveRx), further kinases of Table A; settings: MTOR_h
T3 construct: purchased DiscoveRx Corporation, San Diego (contract service, KINOMEscan)
Summary of the method: as §1

kinase enzymes [2] = target: T4, kinase enzymes (Homo sapiens, UniProt P48736); assay: as above; settings: PIK3Cγ_h
T4 construct: purchased DiscoveRx Corporation, San Diego (contract service, KINOMEscan)
T4 sequence (P48736 whole entry): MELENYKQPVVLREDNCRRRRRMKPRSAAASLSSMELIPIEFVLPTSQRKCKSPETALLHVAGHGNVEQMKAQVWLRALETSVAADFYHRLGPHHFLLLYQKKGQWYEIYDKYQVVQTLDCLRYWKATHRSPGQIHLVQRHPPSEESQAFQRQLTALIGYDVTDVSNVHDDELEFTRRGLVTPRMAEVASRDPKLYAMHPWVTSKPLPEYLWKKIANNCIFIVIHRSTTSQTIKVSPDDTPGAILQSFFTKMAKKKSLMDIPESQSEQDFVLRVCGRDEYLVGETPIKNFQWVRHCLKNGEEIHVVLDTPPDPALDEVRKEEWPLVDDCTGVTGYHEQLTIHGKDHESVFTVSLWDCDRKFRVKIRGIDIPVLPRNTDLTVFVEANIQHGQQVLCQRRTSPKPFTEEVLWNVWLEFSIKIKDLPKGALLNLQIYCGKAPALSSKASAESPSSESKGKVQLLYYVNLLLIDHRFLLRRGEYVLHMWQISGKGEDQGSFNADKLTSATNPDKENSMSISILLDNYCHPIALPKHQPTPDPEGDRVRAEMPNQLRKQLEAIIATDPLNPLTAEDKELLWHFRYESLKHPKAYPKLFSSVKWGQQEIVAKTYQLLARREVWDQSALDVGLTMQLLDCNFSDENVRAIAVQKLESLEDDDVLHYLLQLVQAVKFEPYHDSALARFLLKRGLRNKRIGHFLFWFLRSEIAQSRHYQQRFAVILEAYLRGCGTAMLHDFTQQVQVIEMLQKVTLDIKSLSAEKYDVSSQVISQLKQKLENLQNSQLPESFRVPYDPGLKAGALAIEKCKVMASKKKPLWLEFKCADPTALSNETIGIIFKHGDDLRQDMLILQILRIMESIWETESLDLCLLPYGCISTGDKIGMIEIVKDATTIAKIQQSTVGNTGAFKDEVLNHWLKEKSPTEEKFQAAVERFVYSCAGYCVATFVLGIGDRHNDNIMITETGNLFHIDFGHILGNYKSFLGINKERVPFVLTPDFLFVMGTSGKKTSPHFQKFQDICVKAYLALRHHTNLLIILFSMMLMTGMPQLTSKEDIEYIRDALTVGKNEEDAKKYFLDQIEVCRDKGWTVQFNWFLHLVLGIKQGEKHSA
Summary of the method: as §1

kinase enzymes [3] = target: T5, kinase enzymes (Homo sapiens, UniProt P42336); assay: as above; settings: PIK3Cα_h
T5 construct: purchased DiscoveRx Corporation, San Diego (contract service, KINOMEscan)
T5 sequence (P42336 whole entry): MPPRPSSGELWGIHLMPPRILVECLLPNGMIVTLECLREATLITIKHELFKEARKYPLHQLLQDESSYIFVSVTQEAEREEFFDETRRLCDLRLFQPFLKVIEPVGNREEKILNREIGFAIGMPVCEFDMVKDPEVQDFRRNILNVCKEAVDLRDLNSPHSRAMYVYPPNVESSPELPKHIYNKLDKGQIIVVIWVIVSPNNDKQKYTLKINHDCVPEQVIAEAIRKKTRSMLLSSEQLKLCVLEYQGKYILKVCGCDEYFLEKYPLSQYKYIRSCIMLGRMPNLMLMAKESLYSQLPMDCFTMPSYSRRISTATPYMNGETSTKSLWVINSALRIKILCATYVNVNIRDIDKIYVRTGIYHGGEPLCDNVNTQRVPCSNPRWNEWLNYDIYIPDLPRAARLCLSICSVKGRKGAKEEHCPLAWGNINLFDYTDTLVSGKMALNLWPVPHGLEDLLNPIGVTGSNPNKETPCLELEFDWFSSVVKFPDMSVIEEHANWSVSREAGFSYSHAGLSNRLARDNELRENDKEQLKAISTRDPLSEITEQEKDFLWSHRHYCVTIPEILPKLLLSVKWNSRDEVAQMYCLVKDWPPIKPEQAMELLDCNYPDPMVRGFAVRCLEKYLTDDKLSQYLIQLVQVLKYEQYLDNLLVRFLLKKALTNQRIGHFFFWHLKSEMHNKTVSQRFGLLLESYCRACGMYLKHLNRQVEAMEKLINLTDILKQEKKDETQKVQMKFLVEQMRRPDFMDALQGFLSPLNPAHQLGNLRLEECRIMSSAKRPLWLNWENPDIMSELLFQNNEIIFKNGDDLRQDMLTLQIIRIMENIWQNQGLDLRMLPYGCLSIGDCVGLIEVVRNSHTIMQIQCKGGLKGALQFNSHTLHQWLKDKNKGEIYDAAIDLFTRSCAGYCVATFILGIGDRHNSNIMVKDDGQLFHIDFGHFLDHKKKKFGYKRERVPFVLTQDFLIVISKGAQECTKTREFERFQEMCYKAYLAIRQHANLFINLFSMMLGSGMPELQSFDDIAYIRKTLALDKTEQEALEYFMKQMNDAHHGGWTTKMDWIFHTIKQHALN
Summary of the method: as §1

[4] = tested on: Akt phosphorylated at Thr308 in PC-3 cells; assay: Cellular assay: phosphorylation of Akt at Thr308 in PC-3 cells (MSD ELISA); type: cell-based; settings: PC-3 cells, 60 min compound incubation, MSD ELISA, read-out: IC50 pAkt_Thr308
Summary of the method: (§2)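 Phospho-Akt in whole-cell lysates is quantified by electrochemiluminescent immunoassay using phospho-site capture and total-Akt detection antibodies.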

[5] = tested on: Akt phosphorylated at Ser473 in PC-3 cells; assay: Cellular assay: phosphorylation of Akt at Ser473 in PC-3 cells (MSD ELISA); type: cell-based; settings: PC-3 cells, 60 min compound incubation, MSD ELISA, read-out: IC50 pAkt_S473
Summary of the method: as §2

Structure (SMILES) | Kd (PI3Kδ) [nM] | Kd (PI3Kβ) [nM] | Kd (kinase enzymes [1]) [nM] | Kd (kinase enzymes [2]) [nM] | Kd (kinase enzymes [3]) [nM] | melting point [°C] | IC50 ([4]; Homo sapiens, PC-3, 1 h) [nM] | IC50 ([5]; Homo sapiens, PC-3, 1 h) [nM] | IC50 [4] [nM] | IC50 [5] [nM]
CC(Nc1ccc(F)c(F)c1)c1cc(C(=O)N2CCC[C@H](O)C2)cc2ncc(N3CCOCC3)nc12 (single isomer, unassigned) [Compound 302a] | > 30200 | 1320 | > 30200 | > 30200 | > 30200 | 135 | > 513 | > 513 |  | 
CNCCOCCN(C)C(=O)c1cc(C(C)Nc2cc(F)c(F)c(F)c2)c2nc(N3CCOCC3)cnc2c1 (single isomer, unassigned) [Compound 315a] | > 30200 | 2240 | > 30200 | > 30200 | > 30200 | 86 |  | 195 | > 20.4 | 
CNCCOCCN(C)C(=O)c1cc(C(C)Nc2cc(F)c(F)c(F)c2)c2nc(N3CCOCC3)cnc2c1 (single isomer, unassigned) [Compound 315b] | 162 | 1 | > 30200 | 5490 | 2750 | 90 |  |  | ~85 | ~110
CC(Nc1cccc(F)c1)c1cc(C(=O)N2CCC[C@H](O)C2)cc2ncc(N3CCOCC3)nc12 (single isomer, unassigned) [Compound 320a] | 182 | 2 | > 30200 | 4470 | 513 | 110 | 17 | 20 |  | 
CC(Nc1cccc(F)c1)c1cc(C(=O)N2CC[C@@H](O)C2)cc2ncc(N3CCOCC3)nc12 (single isomer, unassigned) [Compound 321a] | 174 | 1 | > 30200 | 4680 | 832 | 118 | 8 | 18 |  | 
CC(Nc1ccc(F)c(F)c1)c1cc(C(=O)NCC2CCCN2)cc2ncc(N3CCOCC3)nc12 (single isomer, unassigned) [Compound 329a] | 26 | 0.1 | 22900 | 2750 | 339 | 121 |  |  | 6 | 14
CC(Nc1ccc(F)c(F)c1)c1cc(C(=O)NCC2CCCN2)cc2ncc(N3CCOCC3)nc12 (single isomer, unassigned) [Compound 329b] | 1780 | 42 | 22900 | 6310 | 6030 | 124 |  |  | > 513 | > 513
CC(Oc1cccc(F)c1)c1cc(C(=O)NCCO)cc2ncc(N3CCOCC3)nc12 (single isomer, unassigned) [Compound 334a] | 1070 | 19 | 26900 | 12900 | 5370 | 136 |  | 339 | 219 | 
CC(Oc1cccc(F)c1)c1cc(C(=O)NCCO)cc2ncc(N3CCOCC3)nc12 (single isomer, unassigned) [Compound 334b] | 7590 | 457 | 17400 | 11000 | 21400 | 134 |  |  | > 513 | > 513
CNCCN(C)C(=O)c1cc(C(C)Nc2cc(F)c(F)c(F)c2)c2nc(N3CCOCC3)cnc2c1 (single isomer, unassigned) [Compound 335b] | 3420 | 11 | > 30200 | 13500 | 8320 | 80 |  |  | 207 | 188
CC(Nc1cccc(F)c1)c1cc(C(=O)NC[C@@H](C)O)cc2ncc(N3CCOCC3)nc12 (single isomer, unassigned) [Compound 338a] | 1070 | 11 | 25700 | 7240 | 1510 | 89.8 |  |  | 68 | 115
CC(Nc1cccc(F)c1)c1cc(C(=O)NC[C@@H](C)O)cc2ncc(N3CCOCC3)nc12 (single isomer, unassigned) [Compound 338b] | > 30200 | 851 | 20000 | 2340 | 22900 | 90.8 |  |  | > 513 | > 513
CNCCNC(=O)c1cc(C(C)Oc2ccc(F)c(F)c2)c2nc(N3CCOCC3)cnc2c1 (single isomer, unassigned) [Compound 344a] | 288 | 2 | > 30200 | 8320 | 2140 | 75 |  |  | 56 | > 102
CNCCOCCN(C)C(=O)c1cc(C(C)Nc2ccc(F)c(F)c2)c2nc(N3CCOCC3)cnc2c1 (single isomer, unassigned) [Compound 345a] | 282 | 2 | > 30200 | 14800 | 4370 | 80 |  |  | 28 | 79
CC(Nc1ccc(F)c(F)c1)c1cc(C(=O)NC[C@@H](C)O)cc2ncc(N3CCOCC3)nc12 (single isomer, unassigned) [Compound 346a] | 955 | 3 | 30900 | 9550 | 2510 | 107 |  |  | 68 | 178
